This is an account of results in patent publication US6927211B2, “Method for reducing toxicity of combined chemotherapies” (Bristol-Myers Squibb Company, priority 2000, dated 2005).

Assay type in all cases: biochemical
Series [1] concerns human cardiac cytosol. Briefly: Reconstitution of DOX metabolism and DOXol formation, plus or minus taxanes, in human cardiac cytosol. The following applies: for stimulation of DOXol formation (in words): [4Fe-4S]-depleted cytosol, DOX 25 μM, taxanes 1-50 μM, 4 h, FIG. 3; for doxorubicinol formation from DOX: taxane 1 μM, DOX without taxane 0.46±0.04, n=3, P<0.05. The procedure:
(§1) Human myocardium is obtained from patients undergoing aorto-coronary bypass grafting. All samples were routinely disposed of by the surgeons from the lateral aspect of excluded right atrium during cannulation procedures for cardio-pulmonary by-pass. After storage at −80° C., pools of 15-20 samples are processed for cytosol preparation by sequential homogenization, ultracentrifugation and overnight 65% ammonium sulfate precipitation of 105,000 g supernatants. Next, cytosol is dialyzed against 100 mM Tris HCl-40 mM KCl, pH 8.9, diluted to 3 mg protein/ml with the same buffer, and incubated for 15 minutes at room temperature with 100 mM dithiothreitol to promote non-denaturing disassembly of the [4Fe-4S] cluster of cytoplasmic aconitase. This treatment is necessary as reactions of DOXol with [4Fe-4S] clusters would convert this metabolite back to DOX. Sizable amounts of DOXol would therefore go undetected if they reacted with [4Fe-4S] clusters prior to their assay. Unreacted dithiothreitol was eventually removed by sequential gel filtration on (1.5×10 cm) Sepharose 6B columns, protein reprecipitation with 65% ammonium sulfate, and extensive dialysis against 0.3 M NaCl, pH 7.0. Doxorubicin metabolism was reconstituted in 0.5 ml incubations containing cytosol (0.15 mg protein), NADPH (100 μM) and DOX (25 μM), in 0.3 M NaCl (pH 7.0) 37° C. Where indicated ethanol-dissolved taxanes (1-50 μM) were included. Aliquots of taxane-free ethanol (5 μl) were included as appropriate to adjust the final volume to 10 μl in all incubations. After 4 h DOX and DOXol were extracted with 2 ml of CHCl3/CH3OH (1:1) and separated by previously validated two-dimensional TLC on (20×20 cm) […] F524 Silica Gel Plates, using CHCl3/CH3OH/CH3COOH/H2O (80:20:14:6) as mobile phase in either dimension. Doxorubicinol was identified by cochromatography with (S)-DOXol from Streptomyces peucetius or (S) (R)-DOXol purified after NaBH4 reduction of DOX. Where indicated incubations were prepared by replacing DOX with DOX aglycone and by measuring formation of DOXol aglycone. The latter was separated from DOX aglycone by using CHCl3/CH3OH/CH3COOH (100:2:5) and CH3COOC2H5—CH3CH2OH—CH3COOH—H2O (80:10:5:5) in the first and second dimension, respectively. DOX aglycone was purified after thermoacid hydrolysis of DOX.

The subject of series [2] is human cardiac cytosol. Briefly: Conversion of DOX aglycone into DOXol aglycone, plus or minus taxanes, in human cardiac cytosol. To be noted: for stimulation of conversion of DOX aglycone into DOXol aglycone (in words): human cardiac cytosol, FIG. 4; for doxorubicinolone formation from doxorubicinone: taxane 1 μM, without taxane 0.8±0.1, n=3, P<0.05. The procedure: as §1

The test system of series [3] is human cardiac microsomes. The experiment in a line: NADPH oxidation by deoxycholate-solubilized human heart microsomes incubated with DOX, plus or minus taxanes. The following applies: 10 μM DOX, 1-10 μM taxane; FIG. 5. The procedure:
(§2) 105,000 g pellets from human myocardium homogenates are solubilized with deoxycolate and reconstituted at the final concentration of 0.025 mg prot/ml with 10 μM DOX, 1-10 μM taxane, 0.1 mM NADPH, in 0.3 M NaCl, pH 7.0, 37° C.
(§3) Electron flow from NADPH cytochrome P-450 reductase to the quinone moiety of DOX is detected by monitoring NADPH oxidation. Redox coupling of the semiquinone with oxygen is detected by monitoring formation of the superoxide anion radical with the superoxide dismutase-inhibitable reduction of cytochrome c (25 μM). These assays are performed in a Hewlett Packard 8453A UV/VIS/NIR spectrometer equipped with computer-assisted corrections for scatter and turbidity.

Series [4] relates to human cardiac microsomes. Briefly: Superoxide anion formation (SOD-inhibitable cytochrome c reduction) by deoxycholate-solubilized human heart microsomes with DOX, plus or minus taxanes. To be noted: for increase of DOX-dependent superoxide anion formation (in words): 10 μM taxane with DOX. The procedure:
as §2, §3

Entries after “also recorded” stand apart in the source; their conditions may differ.

In the case of `COC(=O)O[C@@]12CO[C@@H]1C[C@H](O)[C@@]1(C)C(=O)[C@H](OC(C)=O)C3=C(C)[C@@H](OC(=O)[C@H](O)[C@@H](NC(=O)c4ccccc4)c4ccccc4)C[C@@](O)([C@@H](OC(=O)c4ccccc4)[C@H]21)C3(C)C` [4-desacetyl-4-methylcarbonate taxol], the “stimulation of DOXol formation (in words)” value with human cardiac cytosol [1] is reported as “did not stimulate; also recorded: did not increase”. The “stimulation of conversion of DOX aglycone into DOXol aglycone (in words)” value (shortened to “stimulation of conversion … (in words)”) with human cardiac cytosol [2] is “failed to stimulate; also recorded: did not increase; also recorded: has not been found to stimulate”. In addition, the “stimulation of NADPH oxidation in the presence of DOX (in words)” value (“stimulation of NADPH oxidation” below) with human cardiac microsomes [3] is “stimulated this oxidation only at the highest levels tested; also recorded: stimulated NADPH oxidation only at the highest concentration tested, although this was not statistically significant”. In addition, the “increase of DOX-dependent superoxide anion formation (in words)” value (from here on “increase”) with human cardiac microsomes [4] (FIG. 6) is reported as “did not increase; also recorded: did not afford any significant stimulation”.
With `CC(=O)O[C@@]12CO[C@@H]1C[C@H](O)[C@@]1(C)C(=O)[C@H](O)C3=C(C)[C@@H](OC(=O)[C@H](O)[C@@H](NC(=O)OC(C)(C)C)c4ccccc4)C[C@@](O)([C@@H](OC(=O)c4ccccc4)[C@H]21)C3(C)C` [DCT, docetaxel], in the series on human cardiac cytosol [1], the “stimulation of DOXol formation (in words)” value is “stimulate” and the “doxorubicinol formation from DOX” value was determined as 1.2±0.2 nmol/mg prot./4h. For the same molecule, in the series with human cardiac cytosol [2], the “stimulation of conversion … (in words)” value is “able to stimulate” and the “doxorubicinolone formation from doxorubicinone” value is recorded as 1.3±0.2 nmol/mg prot./4h. The “stimulation of NADPH oxidation” value with human cardiac microsomes [3] was “able to stimulate”. For the same molecule, the “increase” value with human cardiac microsomes [4] (FIG. 6) is reported as “significant increase”.
`COc1cccc2c1C(=O)c1c(O)c3c(c(O)c1C2=O)C[C@@](O)(C(=O)CO)C[C@@H]3O[C@H]1C[C@H](N)[C@H](O)[C@H](C)O1` [DOX, doxorubicin]: the “effect of DOX on superoxide anion formation (in words)” value in the series on human cardiac microsomes [4] (DOX without taxane, FIG. 6) was “enhances; also recorded: able to enhance”.
As for `CC(=O)O[C@H]1C(=O)[C@@]2(C)[C@H]([C@H](OC(=O)c3ccccc3)[C@]3(O)C[C@H](OC(=O)[C@H](O)[C@@H](NC(=O)c4ccccc4)c4ccccc4)C(C)=C1C3(C)C)[C@]1(OC(C)=O)CO[C@@H]1C[C@@H]2O` [PTX, paclitaxel], in the series with human cardiac cytosol [1], the “stimulation of DOXol formation (in words)” value was “stimulate” and the “doxorubicinol formation from DOX” value was 1.1±0.2 nmol/mg prot./4h. In the series on human cardiac cytosol [2], the “stimulation of conversion … (in words)” value was “able to stimulate” and the “doxorubicinolone formation from doxorubicinone” value is on record as 1.4±0.2 nmol/mg prot./4h. In addition, the “stimulation of NADPH oxidation” value in the series on human cardiac microsomes [3] was “able to stimulate”. Besides, the “increase” value with human cardiac microsomes [4] (FIG. 6) is listed as “significant increase”. For the same molecule, the “generation of superoxide anion radicals in microsomal fractions” value in the series with human cardiac microsomes [4] (taxane 10 μM, DOX without taxane 1.6±0.1, n=4-10, P<0.05) turned out to be 2.2±0.2 nmol/mg prot./min.
